The values that follow come from US11098010B2 (priority 2017, dated 2021).

Where a name gives a salt, the structure may show the parent alone. Read-outs that look alike come from different tables or passages of the source. A value given as a limit tells only on which side of the number the result lay.

The test concerns HBV rcDNA in HepDE19 cells. As to the kind of experiment: HepDE19 assay with bDNA quantitation of HBV rcDNA. The format is cell-based, hepatitis B virus (HBV).
Where [1] appears, read: Hepatitis B virus, HepDE19, 168 h, read-out: DE-19 bDNA EC50 (μM), HepDE19 cells, inhibition of rcDNA formation, 7 day incubation, top concentration 25 μM.
[2] abbreviates: Hepatitis B virus, HepDE19, 168 h, HepDE19 cells, inhibition of rcDNA formation, 7 day incubation, top concentration 25 μM, read-out: DE-19 bDNA EC50.
Setting [3] is: HepDE19 cells, inhibition of rcDNA formation, 7 day incubation, top concentration 25 μM, read-out: DE-19 bDNA EC50.
The mark [4] stands for this setting: read-out: DE-19 bDNA EC50, HepDE19 cells, inhibition of rcDNA formation, 7 day incubation, top concentration 25 μM.

On to `O=C(N[C@H]1CCc2c(C(=O)Nc3ccc(F)c(Cl)c3)ccc(F)c21)OCc1ccc(F)cn1` [Compound 109, O-(5-Fluoropyridin-2-yl)methyl, N—(S)-(4-((3-chloro-4-fluorophenyl)carbamoyl)-7-fluoro-2,3-dihydro-1H-inden-1-yl) carbamate], for which the EC50 under setting [1] came out at 0.27 µM.

Take `O=C(N[C@H]1CCc2c(C(=O)Nc3ccc(F)c(Cl)c3)ccc(F)c21)OCCc1cn[nH]c1` [Compound 110, O-2-(1H-Pyrazol-4-yl)ethyl, N—(S)-(4-((3-chloro-4-fluorophenyl)carbamoyl)-7-fluoro-2,3-dihydro-1H-inden-1-yl) carbamate]: the EC50 under setting [1] was found to be 0.2 µM.

For `COCCOC(=O)N[C@H]1CCc2c(C(=O)Nc3ccc(F)c(Cl)c3)ccc(F)c21` [Compound 111, O-2-Methoxyethyl, N—(S)-(4-((3-chloro-4-fluorophenyl)carbamoyl)-7-fluoro-2,3-dihydro-1H-inden-1-yl) carbamate], the EC50 under setting [2] was determined as 0.15 µM.

`O=C(N[C@H]1CCc2c(C(=O)Nc3ccc(F)c(Cl)c3)ccc(F)c21)OC[C@H]1CCCO1` [Compound 112, O—((R)-Tetrahydrofuran-2-yl)methyl, N—((S)-4-((3-chloro-4-fluorophenyl)carbamoyl)-7-fluoro-2,3-dihydro-1H-inden-1-yl) carbamate]: the EC50 under setting [1] was determined as 0.21 µM.

As for `O=C(N[C@H]1CCc2c(C(=O)Nc3ccc(F)c(Cl)c3)ccc(F)c21)OC1CCOCC1` [Compound 113, O-Tetrahydro-2H-pyran-4-yl, N—(S)-(4-((3-chloro-4-fluorophenyl)carbamoyl)-7-fluoro-2,3-dihydro-1H-inden-1-yl) carbamate], under setting [1], the EC50 is 0.31 µM.

With `COCCCOC(=O)N[C@H]1CCc2c(C(=O)Nc3ccc(F)c(Cl)c3)ccc(F)c21` [Compound 114, O-3-Methoxypropyl, N—(S)-(4-((3-chloro-4-fluorophenyl)carbamoyl)-7-fluoro-2,3-dihydro-1H-inden-1-yl) carbamate], the EC50 under setting [1] was found to be 0.47 µM.

Regarding `O=C(N[C@H]1CCc2c(C(=O)Nc3ccc(F)c(Cl)c3)ccc(F)c21)c1ccccn1` [Compound 115, (S)—N-(4-((3-Chloro-4-fluorophenyl)carbamoyl)-7-fluoro-2,3-dihydro-1H-inden-1-yl)picolinamide], the EC50 under setting [2] is 2.2 µM.

Consider `O=C(N[C@H]1CCc2c(C(=O)Nc3ccc(F)c(Cl)c3)ccc(F)c21)c1cncs1` [Compound 116, (S)—N-(4-((3-Chloro-4-fluorophenyl)carbamoyl)-7-fluoro-2,3-dihydro-1H-inden-1-yl)thiazole-5-carboxamide], for which the EC50 under setting [2] stood at 1.7 µM.

Turning to `CS(=O)(=O)N[C@H]1CCc2c(C(=O)Nc3ccc(F)c(Cl)c3)ccc(F)c21` [Compound 117, (S)—N-(3-chloro-4-fluorophenyl)-7-fluoro-1-(methylsulfonamido)-2,3-dihydro-1H-indene-4-carboxamide], under setting [2], the EC50 was 0.52 µM.

As to `O=C(CN1CCOCC1)N[C@H]1CCc2c(C(=O)Nc3ccc(F)c(Cl)c3)ccc(F)c21` [Compound 118, (S)—N-(3-Chloro-4-fluorophenyl)-7-fluoro-1-(2-morpholinoacetamido)-2,3-dihydro-1H-indene-4-carboxamide], the EC50 under setting [2] was determined as 2.2 µM.

For `O=C(N[C@H]1CCc2c(C(=O)Nc3ccc(F)c(Cl)c3)ccc(F)c21)c1ccncc1` [Compound 120, (S)—N-(4-((3-Chloro-4-fluorophenyl)carbamoyl)-7-fluoro-2,3-dihydro-1H-inden-1-yl)isonicotinamide], the EC50 under setting [2] was found to be 0.24 µM.

Consider `COC(=O)NC1c2c(F)ccc(C(=O)Nc3ccc(F)c(Cl)c3)c2CC1(C)C` (stereo not drawn) [Compound 121, O-Methyl, N-(4-((3-chloro-4-fluorophenyl)carbamoyl)-7-fluoro-2,2-dimethyl-2,3-dihydro-1H-inden-1-yl) carbamate], for which the EC50 under setting [3] was over 25 µM.

Take `COC(=O)NC1c2c(F)ccc(C(=O)Nc3ccc(F)c(Cl)c3)c2CC1(C)C` (stereo not drawn) [Compound 122, O-Methyl, N-(4-((3-chloro-4-fluorophenyl)carbamoyl)-7-fluoro-2,2-dimethyl-2,3-dihydro-1H-inden-1-yl) carbamate]: the EC50 under setting [3] came to 0.47 µM.

Regarding `COC(=O)O[C@H]1CCc2c(C(=O)Nc3ccc(F)c(Cl)c3)ccc(F)c21` [Compound 123, (S)-4-(3-Chloro-4-fluorophenylcarbamoyl)-7-fluoro-2,3-dihydro-1H-inden-1-yl Methyl Carbonate], the EC50 under setting [2] was found to be 0.76 µM.

Consider `O=C(N[C@H]1CCc2c(C(=O)Nc3ccc(F)c(Cl)c3)ccc(F)c21)OCc1cscn1` [Compound 124, O-Thiazol-4-ylmethyl, N—(S)-(4-((3-chloro-4-fluorophenyl)carbamoyl)-7-fluoro-2,3-dihydro-1H-inden-1-yl) carbamate], for which the EC50 under setting [2] was found to be 0.06 µM.

Consider `O=C(N[C@H]1CCc2c(C(=O)Nc3ccc(F)c(Cl)c3)ccc(F)c21)OCCCn1ccnc1` [Compound 125, O-3-(1H-Imidazol-1-yl)propyl, N—(S)-(4-((3-chloro-4-fluorophenyl)carbamoyl)-7-fluoro-2,3-dihydro-1H-inden-1-yl) carbamate Hydrochloride], for which the EC50 under setting [1] came out at 0.28 µM.

In the case of `N#Cc1cc(NC(=O)c2ccc(F)c3c2CC[C@@H]3NC(=O)OCc2ccccn2)ccc1F` [Compound 126, O-Pyridin-2-ylmethyl, N—(S)-(4-((3-cyano-4-fluorophenyl)carbamoyl)-7-fluoro-2,3-dihydro-1H-inden-1-yl)carbamate Hydrochloride], the EC50 under setting [1] stood at 0.24 µM.

On to `O=C(N[C@H]1CCc2c(C(=O)Nc3ccc(F)c(Cl)c3)ccc(F)c21)c1nccs1` [Compound 127, (S)—N-(4-((3-Chloro-4-fluorophenyl)carbamoyl)-7-fluoro-2,3-dihydro-1H-inden-1-yl)thiazole-2-carboxamide], for which, under setting [2], the EC50 is 0.36 µM.

For the compound `O=C(Nc1ccc(F)c(Cl)c1)c1ccc(F)c2c1CC[C@@H]2NS(=O)(=O)C1CC1` [Compound 128, (S)—N-(3-Chloro-4-fluorophenyl)-1-(cyclopropanesulfonamido)-7-fluoro-2,3-dihydro-1H-indene-4-carboxamide], the EC50 under setting [2] was found to be 0.04 µM.

Regarding `O=C(N[C@H]1CCc2c(C(=O)Nc3ccc(F)c(Cl)c3)ccc(F)c21)c1cnco1` [Compound 129, (S)—N-(4-((3-Chloro-4-fluorophenyl)carbamoyl)-7-fluoro-2,3-dihydro-1H-inden-1-yl)oxazole-5-carboxamide], the EC50 under setting [2] amounted to 0.41 µM.

With `COC(=O)N[C@@H]1c2cccc(C(=O)Nc3ccc(F)c(Cl)c3)c2C[C@H]1OC` [Compound 130, O-Methyl, N-((1R,2R)-4-((3-chloro-4-fluorophenyl)carbamoyl)-2-methoxy-2,3-dihydro-1H-inden-1-yl)carbamate], under setting [1], the EC50 was found to be 0.1 µM.

As to `O=C(N[C@H]1CCc2c(C(=O)Nc3ccc(F)c(Cl)c3)ccc(F)c21)OC1CCCC1` [Compound 131, O-Cyclopentyl, N—(S)-(4-((3-chloro-4-fluorophenyl)carbamoyl)-7-fluoro-2,3-dihydro-1H-inden-1-yl)carbamate], under setting [2], the EC50 was 0.59 µM.

As for `O=C(N[C@H]1CCc2c(C(=O)Nc3ccc(F)c(Cl)c3)ccc(F)c21)OCC1CNC(=O)O1` (stereo partly drawn) [Compound 132, O-(2-Oxooxazolidin-5-yl)methyl, N—((S)-4-((3-chloro-4-fluorophenyl)carbamoyl)-7-fluoro-2,3-dihydro-1H-inden-1-yl) carbamate], under setting [1], the EC50 was determined as 0.22 µM.

`O=C(N[C@H]1CCc2c(C(=O)Nc3ccc(F)c(Cl)c3)ccc(F)c21)OCCn1cccn1` [Compound 133, O-2-(1H-Pyrazol-1-yl)ethyl, N—(S)-(4-((3-chloro-4-fluorophenyl)carbamoyl)-7-fluoro-2,3-dihydro-1H-inden-1-yl) carbamate]: under setting [1], the EC50 was 0.15 µM.

For the compound `CC1(C)Cc2c(C(=O)Nc3ccc(F)c(Cl)c3)ccc(F)c2C1NC(=O)OCc1ccccn1` (stereo not drawn) [Compound 135, O-Pyridin-2-ylmethyl, N-(4-((3-chloro-4-fluorophenyl)carbamoyl)-7-fluoro-2,2-dimethyl-2,3-dihydro-1H-inden-1-yl) carbamate], under setting [4], the EC50 worked out at 8.4 µM.

`CC1(C)Cc2c(C(=O)Nc3ccc(F)c(Cl)c3)ccc(F)c2C1NC(=O)OCc1ccccn1` (stereo not drawn) [Compound 136, O-Pyridin-2-ylmethyl, N-(4-((3-chloro-4-fluorophenyl)carbamoyl)-7-fluoro-2,2-dimethyl-2,3-dihydro-1H-inden-1-yl) carbamate]: under setting [4], the EC50 was found to be 0.29 µM.

Turning to `Cn1ccnc1COC(=O)N[C@H]1CCc2c(C(=O)Nc3ccc(F)c(Cl)c3)ccc(F)c21` [Compound 137, O-(1-Methyl-1H-imidazol-2-yl)methyl, N—(S)-(4-((3-chloro-4-fluorophenyl)carbamoyl)-7-fluoro-2,3-dihydro-1H-inden-1-yl) carbamate], under setting [2], the EC50 was found to be 0.1 µM.

For the compound `O=C(N[C@H]1CCc2c(C(=O)Nc3ccc(F)c(Cl)c3)ccc(F)c21)OCc1ncccc1F` [Compound 138, O-(3-Fluoropyridin-2-yl)methyl, N—(S)-(4-((3-chloro-4-fluorophenyl)carbamoyl)-7-fluoro-2,3-dihydro-1H-inden-1-yl) carbamate], the EC50 under setting [1] is 0.16 µM.

Consider `O=C(N[C@H]1CCc2c(C(=O)Nc3ccc(F)c(Cl)c3)ccc(F)c21)OC[C@H]1COCCN1` [Compound 139, O—((R)-Morpholin-3-yl)methyl, N—((S)-4-((3-chloro-4-fluorophenyl)carbamoyl)-7-fluoro-2,3-dihydro-1H-inden-1-yl) carbamate Hydrochloride], for which the EC50 under setting [1] came out at 0.62 µM.

As for `COc1ccnc(COC(=O)N[C@H]2CCc3c(C(=O)Nc4ccc(F)c(Cl)c4)ccc(F)c32)c1` [Compound 140, O-(4-Methoxypyridin-2-yl)methyl, N—(S)-(4-((3-chloro-4-fluorophenyl)carbamoyl)-7-fluoro-2,3-dihydro-1H-inden-1-yl) carbamate], under setting [1], the EC50 worked out at 0.22 µM.
